The results in this text go back to patent US12421252B2, “Spiro (isobenzofuranazetidine) compounds for the treatment of autoimmune disease” (Hoffmann-La Roche Inc., priority 2020, dated 2025).

The target in the test is T1, human TLR7 (Homo sapiens, UniProt Q9NYK1).
T1 sequence (Q9NYK1 27-1049): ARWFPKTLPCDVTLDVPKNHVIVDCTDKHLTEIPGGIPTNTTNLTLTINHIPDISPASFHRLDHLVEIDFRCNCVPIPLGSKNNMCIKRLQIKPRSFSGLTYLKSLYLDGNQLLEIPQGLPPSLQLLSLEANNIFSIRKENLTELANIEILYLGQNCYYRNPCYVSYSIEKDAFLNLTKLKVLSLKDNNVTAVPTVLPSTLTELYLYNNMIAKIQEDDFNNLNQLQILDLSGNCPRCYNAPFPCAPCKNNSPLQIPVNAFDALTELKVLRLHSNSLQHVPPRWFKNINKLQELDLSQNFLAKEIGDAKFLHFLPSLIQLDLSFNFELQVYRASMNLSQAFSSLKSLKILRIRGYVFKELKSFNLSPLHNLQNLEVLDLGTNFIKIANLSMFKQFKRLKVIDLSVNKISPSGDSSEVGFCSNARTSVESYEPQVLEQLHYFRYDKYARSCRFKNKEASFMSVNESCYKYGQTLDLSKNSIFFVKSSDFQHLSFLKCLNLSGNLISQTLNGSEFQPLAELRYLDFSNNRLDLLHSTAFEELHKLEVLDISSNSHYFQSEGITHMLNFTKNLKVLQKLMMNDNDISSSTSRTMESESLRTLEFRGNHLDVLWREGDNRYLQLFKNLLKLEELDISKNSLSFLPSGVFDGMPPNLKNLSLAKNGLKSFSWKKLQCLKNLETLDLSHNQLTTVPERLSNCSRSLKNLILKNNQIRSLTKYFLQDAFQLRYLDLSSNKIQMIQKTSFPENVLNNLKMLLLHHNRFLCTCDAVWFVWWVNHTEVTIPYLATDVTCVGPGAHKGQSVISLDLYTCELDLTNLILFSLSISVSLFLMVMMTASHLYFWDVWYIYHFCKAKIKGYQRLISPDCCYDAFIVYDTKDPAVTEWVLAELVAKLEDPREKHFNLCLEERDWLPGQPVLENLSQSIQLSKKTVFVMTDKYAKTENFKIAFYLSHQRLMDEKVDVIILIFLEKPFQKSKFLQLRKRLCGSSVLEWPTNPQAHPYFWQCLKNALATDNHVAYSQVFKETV
Description: HEK293-Blue-hTLR-7 cells assay. It counts as cell-based. The following applies: HEK293-Blue-hTLR7 cells, R848 stimulation, 20 hrs, SEAP reporter; read-out: HEK/hTLR7 IC50. An excerpt:
HEK293-Blue-hTLR-7 cells assay:
A stable HEK293-Blue-hTLR-7 cell line was purchased from InvivoGen (Cat. #: hkb-htlr7, San Diego, California, USA). These cells were originally designed for studying the stimulation of human TLR7 by monitoring the activation of NF-κB. A SEAP (secreted embryonic alkaline phosphatase) reporter gene was placed under the control of the IFN-β minimal promoter fused to five NF-κB and AP-1-binding sites. The SEAP was induced by activating NF-κB and AP-1 via stimulating HEK-Blue hTLR7 cells with TLR7 ligands. Therefore the reporter expression was declined by TLR7 antagonist under the stimulation of a ligand, such as R848 (Resiquimod), for incubation of 20 hrs. The cell culture supernatant SEAP reporter activity was determined using QUANTI-Blue™ kit (Cat. #: rep-qb1, Invivogen, San Diego, Ca, USA) at a wavelength of 640 nm, a detection medium that turns purple or blue in the presence of alkaline phosphatase.
HEK293-Blue-hTLR7 cells were incubated at a density of 250,000˜450,000 cells/mL in a volume of 170 μL in a 96-well plate in Dulbecco's Modified Eagle's medium (DMEM) containing 4.5 g/L glucose, 50 U/mL penicillin, […], […], 2 mM L-glutamine, 10% (v/v) heat-inactivated fetal bovine serum with addition of 20 μL test compound in a serial dilution in the presence of final DMSO at 1% and 10 μL of 20 uM R848 in above DMEM, perform incubation under 37° C. in a CO2 incubator for 20 hrs. Then 20 μL of the supernatant from each well was incubated with 180 μL Quanti-blue substrate solution at 37° C. for 2 hrs and the absorbance was read at 620˜655 nm using a spectrophotometer. The signaling pathway that TLR7 activation leads to downstream NF-κB activation has been widely accepted, and therefore similar reporter assay was modified for evaluating TLR7 antagonist.

For the compound `[2H]c1ccc2c(N3C[C@H](CN4CC5(C4)OCc4cc(N6C[C@H]7NCCO[C@@H]7C6)ncc45)O[C@H](C)C3)ccc(C#N)c2n1` [Example 28, 5-[(2S,6R)-2-[[6-[(4aR,7aR)-3,4,4a,5,7,7a-hexahydro-2H-pyrrolo[3,4-b][1,4]oxazin-6-yl]spiro[1H-furo[3,4-c]pyridine-3,3′-azetidine]-1′-yl]methyl]-6-methyl-morpholin-4-yl]-2-deuterio-quinoline-8-carbonitrile], the IC50 stood at 0.007 µM.

With `C[C@@H]1CN(c2cc(=O)n(C)c3ncccc23)C[C@H](CN2CC3(C2)OCc2cc(N4CC(N)C4)ccc23)O1` [Example 13, 4-[(2S,6R)-2-[[6-(3-aminoazetidin-1-yl)spiro[1H-isobenzofuran-3,3′-azetidine]-1′-yl]methyl]-6-methyl-morpholin-4-yl]-1-methyl-1,8-naphthyridin-2-one], the IC50 was 0.01 µM.

As to `C[C@@H]1CN(c2ccc(C#N)n3ncc(F)c23)C[C@H](CN2CC3(C2)OCc2cc(N4CCNCC4)ccc23)O1` [Example 6, 3-fluoro-4-[(2R,6S)-2-methyl-6-[(6-piperazin-1-ylspiro[1H-isobenzofuran-3,3′-azetidine]-1′-yl)methyl]morpholin-4-yl]pyrazolo[1,5-a]pyridine-7-carbonitrile], the IC50 amounted to 0.008 µM.

Regarding `[2H]c1ccc2c(N3C[C@H](CN4CC5(C4)OCc4cc(N6C[C@@H](N)[C@H](OC)C6)cnc45)O[C@H](C)C3)ccc(C#N)c2n1` [Example 31, 5-[(2S,6R)-2-[[3-[(3R,4R)-3-amino-4-methoxy-pyrrolidin-1-yl]spiro[5H-furo[3,4-b]pyridine-7,3′-azetidine]-1′-yl]methyl]-6-methyl-morpholin-4-yl]-2-deuterio-quinoline-8-carbonitrile], the IC50 worked out at 0.007 µM.

For the compound `C[C@@H]1CN(c2ccc(C#N)n3ncc(F)c23)C[C@H](CN2CC3(C2)OCc2cc(N4CC[C@](C)(N)C4)ccc23)O1` [Example 5, 4-[(2S,6R)-2-[[6-[(3S)-3-amino-3-methyl-pyrrolidin-1-yl]spiro[1H-isobenzofuran-3,3′-azetidine]-1′-yl]methyl]-6-methyl-morpholin-4-yl]-3-fluoro-pyrazolo[1,5-a]pyridine-7-carbonitrile], the IC50 worked out at 0.019 µM.

`C[C@@H]1CN(c2ccc(C#N)n3ncc(F)c23)C[C@H](CN2CC3(C2)OCc2cc(N4CC5(CN(C)C5)C4)ccc23)O1` [Example 2, 3-fluoro-4-[(2R,6S)-2-methyl-6-[[6-(6-methyl-2,6-diazaspiro[3.3]heptan-2-yl)spiro[1H-isobenzofuran-3,3′-azetidine]-1′-yl]methyl]morpholin-4-yl]pyrazolo[1,5-a]pyridine-7-carbonitrile]: the IC50 worked out at 0.01 µM.

Regarding `[2H]c1ccc2c(N3C[C@H](CN4CC5(C4)OCc4cc(N6C[C@@H](N)[C@H](OC)C6)ccc45)O[C@H](C)C3)ccc(C#N)c2n1` [Example 16, 5-[(2S,6R)-2-[[6-[(3R,4R)-3-amino-4-methoxy-pyrrolidin-1-yl]spiro[1H-isobenzofuran-3,3′-azetidine]-1′-yl]methyl]-6-methyl-morpholin-4-yl]-2-deuterio-quinoline-8-carbonitrile], the IC50 is 0.019 µM.

As to `C[C@@H]1CN(c2ccc(C#N)n3ncc(F)c23)C[C@H](CN2CC3(C2)OCc2cc(N[C@H]4CNC[C@H]4F)ccc23)O1` [Example 3, 3-fluoro-4-[(2S,6R)-2-[[6-[[(3S,4R)-4-fluoropyrrolidin-3-yl]amino]spiro[1H-isobenzofuran-3,3′-azetidine]-1′-yl]methyl]-6-methyl-morpholin-4-yl]pyrazolo[1,5-a]pyridine-7-carbonitrile], the IC50 turned out to be 0.02 µM.

With `C[C@@H]1CN(c2ccc(C#N)n3ncc(F)c23)C[C@H](CN2CC3(C2)OCc2cc(N4CC5(CNCCO5)C4)ccc23)O1` [Example 4, 3-fluoro-4-[(2R,6S)-2-methyl-6-[[6-(5-oxa-2,8-diazaspiro[3.5]nonan-2-yl)spiro[1H-isobenzofuran-3,3′-azetidine]-1′-yl]methyl]morpholin-4-yl]pyrazolo[1,5-a]pyridine-7-carbonitrile], the IC50 is 0.016 µM.

Take `C[C@@H]1CN(c2ccc(C#N)n3nccc23)C[C@H](CN2CC3(C2)OCc2cc(N4CC(N)C4)ccc23)O1` [Example 19, 4-[(2S,6R)-2-[[6-(3-aminoazetidin-1-yl)spiro[1H-isobenzofuran-3,3′-azetidine]-1′-yl]methyl]-6-methyl-morpholin-4-yl]pyrazolo[1,5-a]pyridine-7-carbonitrile]: the IC50 came to 0.019 µM.

For the compound `C[C@@H]1CN(c2ccc(C#N)n3nccc23)C[C@H](CN2CC3(C2)OCc2cc(N4CC(C)(N)C4)ncc23)O1` [Example 25, 4-[(2S,6R)-2-[[6-(3-amino-3-methyl-azetidin-1-yl)spiro[1H-furo[3,4-c]pyridine-3,3′-azetidine]-1′-yl]methyl]-6-methyl-morpholin-4-yl]pyrazolo[1,5-a]pyridine-7-carbonitrile], the IC50 turned out to be 0.023 µM.

As for `C[C@@H]1CN(c2ccc(C#N)n3ncc(F)c23)C[C@H](CN2CC3(C2)OCc2cc(N4CC(C)(N)C4)ccc23)O1` [Example 1, 4-[(2S,6R)-2-[[6-(3-amino-3-methyl-azetidin-1-yl)spiro[1H-isobenzofuran-3,3′-azetidine]-1′-yl]methyl]-6-methyl-morpholin-4-yl]-3-fluoro-pyrazolo[1,5-a]pyridine-7-carbonitrile], the IC50 is 0.012 µM.

`C[C@@H]1CN(c2ccc(C#N)n3ncc(F)c23)C[C@H](CN2CC3(C2)OCc2cc(N4CC(N)C4)ccc23)O1` [Example 9, 4-[(2S,6R)-2-[[6-(3-aminoazetidin-1-yl)spiro[1H-isobenzofuran-3,3′-azetidine]-1′-yl]methyl]-6-methyl-morpholin-4-yl]-3-fluoro-pyrazolo[1,5-a]pyridine-7-carbonitrile]: the IC50 worked out at 0.005 µM.

For the compound `C[C@@H]1CN(c2ccc(C#N)n3nccc23)C[C@H](CN2CC3(C2)OCc2cc(N4CC(C)(N)C4)cnc23)O1` [Example 26, 4-[(2S,6R)-2-[[3-(3-amino-3-methyl-azetidin-1-yl)spiro[5H-furo[3,4-b]pyridine-7,3′-azetidine]-1′-yl]methyl]-6-methyl-morpholin-4-yl]pyrazolo[1,5-a]pyridine-7-carbonitrile], the IC50 was found to be 0.024 µM.

Turning to `[2H]c1ccc2c(N3C[C@H](CN4CC5(C4)OCc4cc(N6CC(N)C6)ncc45)O[C@H](C)C3)ccc(C#N)c2n1` [Example 32, 5-[(2S,6R)-2-[[6-(3-aminoazetidin-1-yl)spiro[1H-furo[3,4-c]pyridine-3,3′-azetidine]-1′-yl]methyl]-6-methyl-morpholin-4-yl]-2-deuterio-quinoline-8-carbonitrile], the IC50 was 0.004 µM.

Consider `[2H]c1ccc2c(N3C[C@H](CN4CC5(C4)OCc4cc(N6CCNCC6)ccc45)O[C@H](C)C3)ccc(C#N)c2n1` [Example 18, 2-deuterio-5-[(2R,6S)-2-methyl-6-[(6-piperazin-1-ylspiro[1H-isobenzofuran-3,3′-azetidine]-1′-yl)methyl]morpholin-4-yl]quinoline-8-carbonitrile], for which the IC50 came to 0.007 µM.
